Activity calls are given as the source filed them. No cut-off for these calls is given here.
Key:
NCI-H1975 [1] = assay: Antiproliferative activity against human NCI-H1975 cells expressing EGFR T790M/ L858R double mutant assessed as inhibition of cell growth measured after 48 to 72 hrs by MTT assay; format: functional, cell-based
NCI-H2228 [2] = assay: Antiproliferative activity against human NCI-H2228 cells expressing ALK assessed as inhibition of cell growth measured after 48 to 72 hrs by MTT assay; format: functional, cell-based
[3] = Selectivity ratio, ratio of IC50 for human A549 cells expressing wild type EGFR to IC50 for human PC-9 cells expressing EGFR Del19 mutant by MTT assay
[4] = Selectivity ratio, ratio of IC50 for human A549 cells expressing wild type EGFR to IC50 for human NCI-H1975 cells expressing EGFR T790M/ L858R double mutant by MTT assay
NCI-H2228 [5] = assay: Effect on cell morphology in human NCI-H2228 cells assessed as increase of cell shrinkage at 1 to 1000 nM incubated for 24 hrs; format: functional, cell-based; details: dose 1-1000 nM
NCI-H2228 [6] = assay: Induction of apoptosis in human NCI-H2228 cells expressing ALK assessed as increase in DNA breakage measured after 24 hrs by Hoechst 33342 staining based fluorescence microscopic analysis; format: functional, cell-based; details: dose 5-25 nM
[7] = target: ALK tyrosine kinase receptor (Homo sapiens, UniProt Q9UM73); assay: Inhibition of ALK (unknown origin) pre-incubated for 10 mins followed by substrate addition measured after 60 mins in presence of ATP by mobility shifting assay
Sequence of ALK tyrosine kinase receptor (Q9UM73 whole entry): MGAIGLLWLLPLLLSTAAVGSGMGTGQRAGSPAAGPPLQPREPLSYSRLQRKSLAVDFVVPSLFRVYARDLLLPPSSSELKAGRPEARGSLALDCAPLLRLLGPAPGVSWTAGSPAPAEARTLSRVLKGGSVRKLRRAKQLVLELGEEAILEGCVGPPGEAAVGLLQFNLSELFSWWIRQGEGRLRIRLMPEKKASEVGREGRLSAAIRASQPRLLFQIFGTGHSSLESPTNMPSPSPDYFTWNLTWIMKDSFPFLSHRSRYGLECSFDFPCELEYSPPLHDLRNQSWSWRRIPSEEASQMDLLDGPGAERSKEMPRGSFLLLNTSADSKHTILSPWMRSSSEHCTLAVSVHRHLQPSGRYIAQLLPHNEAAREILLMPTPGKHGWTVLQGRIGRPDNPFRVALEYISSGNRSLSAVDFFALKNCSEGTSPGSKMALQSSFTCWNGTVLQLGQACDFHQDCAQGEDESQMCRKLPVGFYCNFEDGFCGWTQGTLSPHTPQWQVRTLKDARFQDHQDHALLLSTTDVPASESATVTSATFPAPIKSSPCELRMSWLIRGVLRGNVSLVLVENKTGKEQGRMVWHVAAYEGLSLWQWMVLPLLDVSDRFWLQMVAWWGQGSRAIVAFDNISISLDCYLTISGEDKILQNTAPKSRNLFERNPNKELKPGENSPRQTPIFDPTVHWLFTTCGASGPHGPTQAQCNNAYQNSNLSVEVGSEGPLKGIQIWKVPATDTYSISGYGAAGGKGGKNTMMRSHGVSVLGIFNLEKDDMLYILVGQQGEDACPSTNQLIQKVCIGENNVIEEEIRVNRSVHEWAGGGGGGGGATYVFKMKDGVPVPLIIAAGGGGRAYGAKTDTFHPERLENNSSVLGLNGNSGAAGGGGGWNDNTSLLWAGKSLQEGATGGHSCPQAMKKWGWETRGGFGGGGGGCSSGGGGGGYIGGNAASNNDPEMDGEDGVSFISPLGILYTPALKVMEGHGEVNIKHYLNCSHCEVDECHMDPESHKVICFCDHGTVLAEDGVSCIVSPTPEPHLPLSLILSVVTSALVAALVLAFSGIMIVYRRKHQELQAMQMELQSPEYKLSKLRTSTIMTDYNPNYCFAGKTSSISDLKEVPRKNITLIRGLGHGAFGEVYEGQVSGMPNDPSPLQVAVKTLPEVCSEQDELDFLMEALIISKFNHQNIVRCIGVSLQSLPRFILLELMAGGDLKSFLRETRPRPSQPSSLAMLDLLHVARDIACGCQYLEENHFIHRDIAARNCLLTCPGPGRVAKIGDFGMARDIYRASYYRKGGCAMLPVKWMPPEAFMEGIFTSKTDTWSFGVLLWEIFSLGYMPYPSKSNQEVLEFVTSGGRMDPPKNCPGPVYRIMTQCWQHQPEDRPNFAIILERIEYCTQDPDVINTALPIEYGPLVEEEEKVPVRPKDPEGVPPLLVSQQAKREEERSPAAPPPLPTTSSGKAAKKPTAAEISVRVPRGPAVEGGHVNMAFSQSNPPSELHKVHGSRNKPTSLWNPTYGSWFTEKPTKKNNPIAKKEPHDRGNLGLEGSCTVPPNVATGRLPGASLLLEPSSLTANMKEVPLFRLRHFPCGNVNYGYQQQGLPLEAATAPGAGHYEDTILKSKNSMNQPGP

NCI-H1975 [8] = assay: Antimigratory activity against human NCI-H1975 cells assessed as decrease in healing rate upto 10 nM measured upto 36 hrs by scratch-wound healing assay; format: functional, cell-based
NCI-H1975 [9] = assay: Effect on cell morphology in human NCI-H1975 cells assessed as cell aggregation at 1 to 1000 nM incubated for 24 hrs; format: functional, cell-based; details: dose 1-1000 nM
[10] = Selectivity ratio, ratio of IC50 for human NCI-H2228 cells expressing ALK to IC50 for human HK-2 cells by MTT assay
NCI-H1975 [11] = assay: Effect on cell morphology in human NCI-H1975 cells assessed as cell shrinkage at 1 to 1000 nM incubated for 24 hrs; format: functional, cell-based; details: dose 1-1000 nM
NCI-H1975 [12] = assay: Antimigratory activity against human NCI-H1975 cells assessed as reduction in cell migration incubated for 24 hrs by crystal violet staining microscopy based transwell migration assay; format: functional; details: dose 10-20 nM
NCI-H1975 [13] = assay: Induction of apoptosis in human NCI-H1975 cells expressing EGFR T790M/ L858R double mutant assessed as increase in DNA breakage measured after 24 hrs by Hoechst 33342 staining based fluorescence microscopic analysis; format: functional, cell-based; details: dose 5-25 nM
[14] = Selectivity ratio, ratio of IC50 for human NCI-H1975 cells expressing EGFR T790M/ L858R double mutant to IC50 for human HK-2 cells by MTT assay
NCI-H1975 [15] = assay: Inhibition of human NCI-H1975 cell cloning incubated for 24 hrs by inverted microscopic analysis; format: functional, cell-based; details: dose 5-25 nM
Homo sapiens [16] = organism: Homo sapiens; assay: Selectivity ratio, ratio of IC50 for wild type EGFR (unknown origin) to IC50 for EGFR L858R/T790M double mutant (unknown origin) by mobility shifting assay
A549 = assay: Antiproliferative activity against human A549 cells expressing wild type EGFR assessed as inhibition of cell growth measured after 48 to 72 hrs by MTT assay; format: functional, cell-based
NCI-H2228 [17] = assay: Effect on cell morphology in human NCI-H2228 cells assessed as increase of cell opacity at 1 to 1000 nM incubated for 24 hrs; format: functional, cell-based; details: dose 1-1000 nM
NCI-H2228 [18] = assay: Effect on cell morphology in human NCI-H2228 cells assessed as loss of large number of floating cells at 1 to 1000 nM incubated for 24 hrs; format: functional, cell-based; details: dose 1-1000 nM
[19] = target: Epidermal growth factor receptor (Homo sapiens, UniProt P00533); assay: Inhibition of wild type EGFR (unknown origin) pre-incubated for 10 mins followed by substrate addition measured after 60 mins in presence of ATP by mobility shifting assay
Sequence of Epidermal growth factor receptor (Homo sapiens, UniProt P00533) (P00533 whole entry): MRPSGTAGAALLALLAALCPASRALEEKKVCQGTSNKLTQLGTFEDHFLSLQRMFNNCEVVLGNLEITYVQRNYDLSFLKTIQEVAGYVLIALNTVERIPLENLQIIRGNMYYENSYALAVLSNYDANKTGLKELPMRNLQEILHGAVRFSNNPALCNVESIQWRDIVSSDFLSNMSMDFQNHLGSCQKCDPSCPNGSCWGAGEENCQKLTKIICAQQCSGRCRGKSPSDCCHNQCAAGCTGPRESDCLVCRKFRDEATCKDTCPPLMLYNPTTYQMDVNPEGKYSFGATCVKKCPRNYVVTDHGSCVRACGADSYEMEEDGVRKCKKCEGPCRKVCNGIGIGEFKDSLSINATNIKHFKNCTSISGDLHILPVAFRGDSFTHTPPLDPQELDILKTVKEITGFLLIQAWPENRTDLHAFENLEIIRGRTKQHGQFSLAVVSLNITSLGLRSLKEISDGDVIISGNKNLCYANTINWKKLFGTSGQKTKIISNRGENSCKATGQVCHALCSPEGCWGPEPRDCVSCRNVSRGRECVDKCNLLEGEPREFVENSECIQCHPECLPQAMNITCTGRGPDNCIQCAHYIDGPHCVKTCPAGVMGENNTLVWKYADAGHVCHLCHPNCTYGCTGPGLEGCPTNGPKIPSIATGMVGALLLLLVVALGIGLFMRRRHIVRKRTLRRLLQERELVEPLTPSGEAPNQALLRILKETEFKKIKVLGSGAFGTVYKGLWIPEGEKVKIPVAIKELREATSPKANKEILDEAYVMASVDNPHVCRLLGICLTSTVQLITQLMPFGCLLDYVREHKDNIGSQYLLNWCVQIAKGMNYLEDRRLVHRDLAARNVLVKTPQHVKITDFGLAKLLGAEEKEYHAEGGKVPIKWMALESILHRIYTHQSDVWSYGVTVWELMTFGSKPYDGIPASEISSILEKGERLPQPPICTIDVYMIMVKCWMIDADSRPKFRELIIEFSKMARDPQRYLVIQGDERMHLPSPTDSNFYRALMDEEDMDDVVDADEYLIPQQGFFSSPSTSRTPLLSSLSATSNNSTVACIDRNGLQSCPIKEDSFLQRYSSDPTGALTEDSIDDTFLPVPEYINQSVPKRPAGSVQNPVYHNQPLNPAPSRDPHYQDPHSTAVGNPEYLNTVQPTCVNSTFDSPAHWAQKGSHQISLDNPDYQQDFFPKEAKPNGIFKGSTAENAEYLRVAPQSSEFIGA

NCI-H2228 [20] = assay: Inhibition of human NCI-H2228 cell cloning incubated for 24 hrs by inverted microscopic analysis; format: functional, cell-based; details: dose 1-20 nM
Homo sapiens [21] = organism: Homo sapiens; assay: Selectivity ratio, ratio of IC50 for wild type EGFR (unknown origin) to IC50 for EGFR Del19 mutant (unknown origin) by mobility shifting assay
NCI-H2228 [22] = assay: Effect on cell morphology in human NCI-H2228 cells assessed as loss of cell morphology at 1 to 1000 nM incubated for 24 hrs; format: functional, cell-based; details: dose 1-1000 nM
[23] = Cytotoxicity against human EA.hy 926 cells assessed as inhibition of cell growth measured after 48 to 72 hrs by MTT assay; format: toxicity, cell-based
[24] = target: Epidermal growth factor receptor (Homo sapiens, UniProt P00533, L858R/T790M); assay: Inhibition of EGFR L858R/T790M double mutant (unknown origin) pre-incubated for 10 mins followed by substrate addition measured after 60 mins in presence of ATP by mobility shifting assay
EA.hy 926 = assay: Effect on cell morphology in human EA.hy 926 cells at 1 uM incubated for 24 hrs by inverted microscopic analysis; format: functional, cell-based
[25] = Selectivity ratio, ratio of IC50 for human NCI-H1975 cells expressing EGFR T790M/ L858R double mutant to IC50 for human EA.hy 926 cells by MTT assay
PC-9 = assay: Antiproliferative activity against human PC-9 cells expressing EGFR Del19 mutant assessed as inhibition of cell growth measured after 48 to 72 hrs by MTT assay; format: functional, cell-based
[26] = Selectivity ratio, ratio of IC50 for human NCI-H2228 cells expressing ALK to IC50 for human EA.hy 926 cells by MTT assay
HK-2 = assay: Effect on cell morphology in human HK-2 cells at 1 uM incubated for 24 hrs by inverted microscopic analysis; format: functional, cell-based
NCI-H2228 [27] = assay: Effect on cell morphology in human NCI-H2228 cells assessed as increase of cell fragments at 1 to 1000 nM incubated for 24 hrs; format: functional, cell-based; details: dose 1-1000 nM
NCI-H1975 [28] = assay: Effect on cell morphology in human NCI-H1975 cells assessed as disappearance of cell morphology at 1 to 1000 nM incubated for 24 hrs; format: functional, cell-based; details: dose 1-1000 nM
[29] = target: Epidermal growth factor receptor (Homo sapiens, UniProt P00533, EX19DEL); assay: Inhibition of EGFR Del19 mutant (unknown origin) pre-incubated for 10 mins followed by substrate addition measured after 60 mins in presence of ATP by mobility shifting assay
Sequence of Epidermal growth factor receptor (Homo sapiens, UniProt P00533, EX19DEL) (P00533 whole entry, looked up, stated change not applied): as the sequence (P00533 whole entry) above

NCI-H1975 [30] = assay: Effect on cell morphology in human NCI-H1975 cells assessed as appearance of blurred boundary region at 1 to 1000 nM incubated for 24 hrs; format: functional, cell-based; details: dose 1-1000 nM
[31] = Cytotoxicity against human HK-2 cells assessed as inhibition of cell growth measured after 48 to 72 hrs by MTT assay; format: toxicity, cell-based

C=CC(=O)Nc1cc(Nc2ncc(F)c(Nc3ccccc3S(=O)(=O)N(C)C)n2)c(OC)cc1N(C)CCN(C)C
IC50 (NCI-H1975 [1]): 67 nM
IC50 (NCI-H2228 [2]): 45 nM

C=CC(=O)Nc1cc(Nc2ncc(Cl)c(Nc3ccccc3S(=O)(=O)N(C)C)n2)c(OC)cc1N(C)CCN(C)C
IC50 (NCI-H1975 [1]): 12.5 nM
IC50 (NCI-H2228 [2]): 18 nM

COc1cc(N(C)CCN(C)C)c(NC(=O)CCl)cc1Nc1ncc(Cl)c(Nc2ccccc2S(=O)(=O)N(C)C)n1
IC50 (NCI-H1975 [1]): 1030 nM
IC50 (NCI-H2228 [2]): 104 nM

C=CC(=O)Nc1cc(Nc2ncc(Cl)c(Nc3ccccc3S(=O)(=O)NC3CC3)n2)c(OC)cc1N(C)CCN(C)C
Ratio IC50 [3]: 71.86
Ratio IC50 [4]: 77.25
Activity (NCI-H2228 [5]): Active
Activity (NCI-H2228 [6]): Dose-Dependent Effect
IC50 (NCI-H1975 [1]): 21.5 nM
IC50 [7]: 3.31 nM
Activity (NCI-H1975 [8]): Active
Activity (NCI-H1975 [9]): Active
Ratio IC50 [10]: 300.27
Activity (NCI-H1975 [11]): Active
Activity (NCI-H1975 [12]): Dose-Dependent Effect
Activity (NCI-H1975 [13]): Dose-Dependent Effect
Ratio IC50 [14]: 157.28
inhibition (NCI-H1975 [15]): Active
Ratio IC50 (Homo sapiens [16]): 21.5
IC50 (A549): 1540 nM
Activity (NCI-H2228 [17]): Active
Activity (NCI-H2228 [18]): Active
IC50 [19]: 23.2 nM
inhibition (NCI-H2228 [20]): Active
Ratio IC50 (Homo sapiens [21]): 32.3
Activity (NCI-H2228 [22]): Active
IC50 [23]: 1610 nM
IC50 [24]: 1.08 nM
Activity (EA.hy 926): Active
Ratio IC50 [25]: 74.83
IC50 (PC-9): 20 nM
Ratio IC50 [26]: 146.27
IC50 (NCI-H2228 [2]): 11 nM
Activity (HK-2): Active
Activity (NCI-H2228 [27]): Active
Activity (NCI-H1975 [28]): Active
IC50 [29]: 0.72 nM
Activity (NCI-H1975 [30]): Active
IC50 [31]: 3300 nM

C=CC(=O)Nc1cc(Nc2ncc(Cl)c(Nc3ccccc3S(=O)(=O)N(C)C3CC3)n2)c(OC)cc1N(C)CCN(C)C
IC50 (NCI-H1975 [1]): 100 nM
IC50 (NCI-H2228 [2]): 24.5 nM

CNS(=O)(=O)c1ccccc1Nc1ncnc2cc(OCCOC)c(OCCOC)cc12
IC50 (NCI-H1975 [1]): > 10000 nM
IC50 (NCI-H2228 [2]): > 10000 nM

C=CC(=O)Nc1cc(Nc2ncc(F)c(Nc3ccccc3S(=O)(=O)N3CCCC3)n2)c(OC)cc1N(C)CCN(C)C
IC50 (NCI-H1975 [1]): 81 nM
IC50 (NCI-H2228 [2]): 19 nM

CCN(CC)S(=O)(=O)c1ccccc1Nc1ncnc2cc(OCCOC)c(OCCOC)cc12
IC50 (NCI-H1975 [1]): > 10000 nM
IC50 (NCI-H2228 [2]): > 10000 nM

COCCOc1cc2ncnc(Nc3ccccc3S(=O)(=O)N(C)C)c2cc1OCCOC
IC50 (NCI-H1975 [1]): > 10000 nM
IC50 (NCI-H2228 [2]): > 10000 nM

COCCOc1cc2ncnc(Nc3ccccc3S(=O)(=O)N3CCCC3)c2cc1OCCOC
IC50 (NCI-H1975 [1]): > 10000 nM
IC50 (NCI-H2228 [2]): > 10000 nM

C=CC(=O)Nc1cc(Nc2nccc(-c3cn(C)c4ccccc34)n2)c(OC)cc1N(C)CCN(C)C [OSIMERTINIB]
IC50 (A549): 1560 nM
IC50 [23]: 1160 nM
Activity (HK-2): inactive
IC50 [31]: 2400 nM

Cc1cc(Nc2ncc(Cl)c(Nc3ccccc3S(=O)(=O)C(C)C)n2)c(OC(C)C)cc1C1CCNCC1 [CERITINIB]
Ratio IC50 [10]: 77.69
IC50 [23]: 1010 nM
Ratio IC50 [26]: 228.36
IC50 [31]: 2510 nM

CN(C)CCN(C)c1ccc(Nc2ncc(Cl)c(Nc3ccccc3S(=O)(=O)N(C)C)n2)cc1
IC50 (NCI-H1975 [1]): 61 nM
IC50 (NCI-H2228 [2]): 108 nM

C=CC(=O)Nc1cc(Nc2ncc(Cl)c(Nc3ccccc3S(=O)(=O)N3CCCC3)n2)c(OC)cc1N(C)CCN(C)C
IC50 (NCI-H1975 [1]): 13.6 nM
IC50 (NCI-H2228 [2]): 14 nM

COCCOc1cc2ncnc(N(C)c3ccccc3S(=O)(=O)N(C)C)c2cc1OCCOC
IC50 (NCI-H1975 [1]): > 10000 nM
IC50 (NCI-H2228 [2]): > 10000 nM

Cc1cc(N(C)CCN(C)C)ccc1Nc1ncc(Cl)c(Nc2ccccc2S(=O)(=O)N(C)C)n1
IC50 (NCI-H1975 [1]): 170 nM
IC50 (NCI-H2228 [2]): 55.5 nM

CNC(=O)c1ccccc1Nc1ncnc2cc(OCCOC)c(OCCOC)cc12
IC50 (NCI-H1975 [1]): > 10000 nM
IC50 (NCI-H2228 [2]): > 10000 nM

COCCOc1cc2ncnc(Nc3ccccc3S(=O)(=O)NC3CC3)c2cc1OCCOC
IC50 (NCI-H1975 [1]): > 10000 nM
IC50 (NCI-H2228 [2]): > 10000 nM

Source: ChEMBL document CHEMBL5257101, “Synthesis and evaluation of sulfonamide derivatives targeting EGFR790M/L858R mutations and ALK rearrangement as anticancer agents” (Bioorg Med Chem, 2023)
